According to PMC7918738, “Microtubule Destabilizing Sulfonamides as an Alternative to Taxane-Based Chemotherapy” (International Journal of Molecular Sciences, 2021):
pIC50: −log10 of the molar value.

Experiments:
[1] = system: HT-29 (colon adenocarcinoma); parameters: method as in ref 52 (a number printed in a supplementary file, which may have a reference list of its own: not looked up in the article's list); settings: read-out: Antiproliferative Activity IC50 HT-29; cited from earlier work
[2] = system: OVCAR-8 ovarian carcinoma cells; parameters: method as in ref 14 (Bicaku, E. et al.); settings: ref 14 (Bicaku, E. et al.); read-out: Antiproliferative Activity IC50 OVCAR-8; cited from earlier work
[3] = parameters: method as in PMID 12734814, PMID 17116587, PMID 17613018; settings: cited from earlier work
[4] = system: MCF7 (breast adenocarcinoma); parameters: method as in PMID 7903152; settings: read-out: Antiproliferative Activity IC50 MCF7; cited from earlier work
SKOV3 cells = assay: Annexin V-FITC/PI cell death quantification in SKOV3; format: cell-based, human; settings: SKOV3, 72 h, 38 600 nM, 42 50 nM, 45 400 nM, paclitaxel 10 nM
Method: To determine whether the cytotoxic/antiproliferative effect of the MDS was due to apoptosis induction, cells were treated with variable concentrations of the drug for 72 h or 6 days, stained with Annexin V-FITC (AnV) and propidium iodide (PI), and analyzed by flow cytometry. Double negative cells (AnV^−/PI^−) were classified as live cells (L), cells positive for AnV and negative for PI (AnV^+/PI^−) were considered in Early Apoptosis (EA), cells negative for AnV and positive for PI (AnV^−/PI^+) were considered necrotic (N), and double-positive cells (AnV^+/PI^+) as Late Apoptosis (LA). In all cases, the compounds were used at the same concentrations previously used in cell cycle studies (Table 5).
MCF7, SKOV-3, and HeLa apoptotic cells were quantified using an Annexin V-FITC/PI apoptosis detection kit (Immunostep, Salamanca, Spain) according to the manufacturer’s guidelines. 1.5 mL/well of cells in the exponential growth phase at 2·10^4 cells/mL were seeded onto 12-well plates and left to attach overnight. After 24 h incubation, cells were treated with selected compounds. After 72 h (MCF7, SKOV-3, and HeLa) and 6 days (MCF7) post-treatment, attached and floating cells of treated and untreated wells were collected, centrifuged, resuspended in Annexin V binding buffer, and stained with Annexin V-FITC/PI. Cells were then incubated in darkness at room temperature for 15 min and a total of 30,000 cells were acquired and analyzed using the BD Accuri™ C6 Plus Flow Cytometer and Software (version 1.0.264.21, BD Biosciences, San José, CA, USA), respectively. Compounds were dissolved in DMSO and the final solvent concentration never exceeded 0.5% (v/v). Control wells included cells with 0.5% (v/v) DMSO.

[5] = system: SKOV3 ovarian carcinoma cells; assay: Antiproliferative activity against SKOV3 (MTT); format: cell-based; settings: Homo sapiens, SK-OV-3, 72 h
Method: (§1) The in vitro antiproliferative activity of compounds 38, 42, and 45 against a panel of five human ovarian carcinoma cell lines (SKOV3, IGROV-1, A2780, OVCAR-8, and OVCAR-3) was evaluated by a colorimetric method (Table 3) and compared with paclitaxel. […] For SKOV3, the potency reduction observed for paclitaxel together with a sustained or improved (42 with a 7 nM IC50 value) potency for MDS results in a more favorable profile of the MDS compared to paclitaxel.
(§2) MCF7 (human breast carcinoma), SKOV-3 (human ovarian carcinoma), OVCAR-3 (human ovarian carcinoma), OVCAR-8 (human ovarian carcinoma), and HeLa (human cervical carcinoma) cell lines were cultured in Dulbecco’s Modified Eagle’s Medium (DMEM) (Gibco, Thermo Fischer Scientific) containing 10% (v/v) heat-inactivated fetal bovine serum (HIFBS) (Lonza-Cambrex, Karlskoga, Sweden), 2 mM L-glutamine (Lonza-Cambrex, Karlskoga, Sweden), 100 μg/mL streptomycin, and 100 IU/mL penicillin (Lonza-Cambrex) at 37 °C in humidified 95% air and 5% CO2. HT-29 (human colon carcinoma), IGROV-1 (human ovarian carcinoma), and A2780 (human ovarian carcinoma) cell lines were cultured in RPMI 1640 medium (Gibco, Thermo Fischer Scientific) supplemented with 10% HIFBS, 100 μg/mL streptomycin, and 100 IU/mL penicillin at 37 °C in humidified 95% air and 5% CO2 atmosphere. The presence of mycoplasma was routinely checked with MycoAlert kit (Lonza-Cambrex) and only mycoplasma-free cells were used in the experiments. Ovarian tumor cell lines were originally acquired from Dr Atanasio Pandiella from Centro de Investigación del Cáncer (CIC), Salamanca, Spain. HeLa, HT-29 and MCF7 tumor cell lines were provided by Dr Faustino Mollinedo from Centro de Investigaciones Biológicas Margarita Salas, Madrid, Spain.
(§3) MCF7, HeLa, and HT-29 cell proliferation, when treated with the corresponding compounds, were determined using the XTT (sodium 3’-[1(phenylaminocarbonyl)-3,4-tetrazolium]-bis(4-methoxy-6-nitro)-benzenesulfonic acid hydrate) cell proliferation kit (Roche Molecular Biochemicals, Mannheim, Germany). […] The absorbance of the formazan product generated was measured at 450 nm using a multi-well plate reader. SKOV-3, OVCAR-3, OVCAR-8, IGROV-1, A-2780 cell proliferation, when treated with the corresponding compound, were determined using MTT (3-(4,5-dimethylthiazol-2-yl)-2,5-diphenyl-2H-tetrazolium bromide) (Sigma-Aldrich, St. Louis, MO, USA). […] Absorbance was measured at 570 nm in a plate reader (Ultra Evolution, Tecan, Männedorf, Suiza). […] After 24 h incubation, to allow cells to attach to the plates, all compounds were added at 1 µM concentration and the effect on the proliferation was evaluated 72 h post-treatment. […]

[6] = system: A2780 ovarian carcinoma cells; parameters: method as in ref 14 (Bicaku, E. et al.); settings: ref 14 (Bicaku, E. et al.); read-out: Antiproliferative Activity IC50 A2780; cited from earlier work
[7] = system: IGROV-1 ovarian carcinoma cells; assay: Antiproliferative activity against IGROV-1 (MTT); format: cell-based; settings: Homo sapiens, 72 h
Method: as §1, §2, §3

[8] = system: HeLa (cervix epithelioid carcinoma); parameters: method as in PMID 7903152; settings: read-out: Antiproliferative Activity IC50 HeLa; cited from earlier work
[9] = system: OVCAR-3 ovarian carcinoma cells; parameters: method as in ref 14 (Bicaku, E. et al.); settings: ref 14 (Bicaku, E. et al.); read-out: Antiproliferative Activity IC50 OVCAR-3; cited from earlier work

CC(=O)O[C@H]1C(=O)[C@@]2(C)[C@H]([C@H](OC(=O)c3ccccc3)[C@]3(O)C[C@H](OC(=O)[C@H](O)[C@@H](NC(=O)c4ccccc4)c4ccccc4)C(C)=C1C3(C)C)[C@]1(OC(C)=O)CO[C@@H]1C[C@@H]2O [Paclitaxel, reference compound]
pIC50 [1]: 8.55
pIC50 [2]: 8.22
Aqueous solubility [3]: <2 µg/mL
pIC50 [4]: 8.60
Annexin V-FITC/PI 72 h EA (early apoptosis) (SKOV3 cells): 3.8%
Annexin V-FITC/PI 72 h LA (late apoptosis) (SKOV3 cells): 3.1%
Annexin V-FITC/PI 72 h Live (SKOV3 cells): 90.7%
Annexin V-FITC/PI 72 h Necrosis (SKOV3 cells): 2.4%
Annexin V-positive SKOV3 cells (SKOV3 cells): 7%
Annexin V-FITC/PI 72 h Live (SKOV3 cells; listed as paclitaxel): 91%
pIC50 [5]: 7.09
pIC50 [6]: 8.52
pIC50 [7]: 7.41
pIC50 [8]: 8.59
pIC50 [9]: 7.77
